According to ChEMBL document CHEMBL1201862, “PubChem BioAssay data set” (2004):
Active and inactive are the calls of the source.

Assays:
Troponin, cardiac muscle = Troponin, cardiac muscle (Homo sapiens, UniProt P19429+P45379+P63316); assay: Fluorescence-based biochemical high throughput dose response assay for activators of the calcium sensitivity of cardiac Regulated Thin Filaments (RTF). [Related pubchem assays (depositor defined):AID493008, AID493018, AID504382, AID504383]; format: protein-complex assay
NADPH oxidase 1 [1] = biological target: T1, NADPH oxidase 1 (Homo sapiens, UniProt Q9Y5S8); format: functional, cell-based;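 note: Cell-based assay with luminescence read-out, IC50 derived from inhibitor dose-response curves; intracellular ROS from endogenous NOX1 in intact HT29 colon cancer cells; potency of inhibitors that lower the ROS luminescence signal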
T1 sequence (Q9Y5S8 whole entry): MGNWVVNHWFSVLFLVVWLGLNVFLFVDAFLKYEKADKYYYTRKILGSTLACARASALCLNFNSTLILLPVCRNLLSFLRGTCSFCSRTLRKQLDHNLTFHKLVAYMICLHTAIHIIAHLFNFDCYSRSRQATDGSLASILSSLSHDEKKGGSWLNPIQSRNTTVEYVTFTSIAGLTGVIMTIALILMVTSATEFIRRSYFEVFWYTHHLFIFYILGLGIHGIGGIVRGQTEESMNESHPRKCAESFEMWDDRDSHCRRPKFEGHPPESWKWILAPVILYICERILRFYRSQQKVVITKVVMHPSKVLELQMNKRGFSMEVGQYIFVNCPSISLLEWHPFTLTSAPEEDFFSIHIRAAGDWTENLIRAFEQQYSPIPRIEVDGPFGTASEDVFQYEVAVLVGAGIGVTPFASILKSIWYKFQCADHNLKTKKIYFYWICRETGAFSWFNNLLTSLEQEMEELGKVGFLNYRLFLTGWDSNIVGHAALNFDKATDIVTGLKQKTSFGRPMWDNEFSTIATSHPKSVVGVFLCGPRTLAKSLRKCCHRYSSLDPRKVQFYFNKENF

NADPH oxidase 1 [2] = biological target: T1, NADPH oxidase 1; assay: HEK293 ROS counter-screen potency – cell-based, IC50, set 2, counter-screen for NOX1 inhibitor project, late-stage follow-up (AID 435002); format: functional
NADPH oxidase 2 = NADPH oxidase 2 (Homo sapiens, UniProt P04839); assay: PubChem AID 435013
NADPH oxidase 2, sequence (P04839 whole entry): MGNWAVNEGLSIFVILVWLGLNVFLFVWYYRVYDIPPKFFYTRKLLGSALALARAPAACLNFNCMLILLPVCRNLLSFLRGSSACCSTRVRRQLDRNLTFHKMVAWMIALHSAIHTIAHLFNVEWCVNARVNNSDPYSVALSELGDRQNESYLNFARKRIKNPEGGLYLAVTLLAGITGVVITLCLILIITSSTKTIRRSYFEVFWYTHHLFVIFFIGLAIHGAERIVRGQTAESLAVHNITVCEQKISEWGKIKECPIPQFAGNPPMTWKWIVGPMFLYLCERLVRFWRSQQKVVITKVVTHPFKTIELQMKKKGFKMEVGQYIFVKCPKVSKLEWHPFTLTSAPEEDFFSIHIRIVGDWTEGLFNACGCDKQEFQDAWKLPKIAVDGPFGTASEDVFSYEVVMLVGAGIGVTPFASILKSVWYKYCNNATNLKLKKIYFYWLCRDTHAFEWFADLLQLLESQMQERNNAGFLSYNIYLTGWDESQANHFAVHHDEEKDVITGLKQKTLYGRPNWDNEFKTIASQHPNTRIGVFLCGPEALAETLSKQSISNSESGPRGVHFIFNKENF

NADPH oxidase 3 = NADPH oxidase 3 (Homo sapiens, UniProt Q9HBY0); assay: PubChem AID 435013
NADPH oxidase 3, sequence (Q9HBY0 whole entry): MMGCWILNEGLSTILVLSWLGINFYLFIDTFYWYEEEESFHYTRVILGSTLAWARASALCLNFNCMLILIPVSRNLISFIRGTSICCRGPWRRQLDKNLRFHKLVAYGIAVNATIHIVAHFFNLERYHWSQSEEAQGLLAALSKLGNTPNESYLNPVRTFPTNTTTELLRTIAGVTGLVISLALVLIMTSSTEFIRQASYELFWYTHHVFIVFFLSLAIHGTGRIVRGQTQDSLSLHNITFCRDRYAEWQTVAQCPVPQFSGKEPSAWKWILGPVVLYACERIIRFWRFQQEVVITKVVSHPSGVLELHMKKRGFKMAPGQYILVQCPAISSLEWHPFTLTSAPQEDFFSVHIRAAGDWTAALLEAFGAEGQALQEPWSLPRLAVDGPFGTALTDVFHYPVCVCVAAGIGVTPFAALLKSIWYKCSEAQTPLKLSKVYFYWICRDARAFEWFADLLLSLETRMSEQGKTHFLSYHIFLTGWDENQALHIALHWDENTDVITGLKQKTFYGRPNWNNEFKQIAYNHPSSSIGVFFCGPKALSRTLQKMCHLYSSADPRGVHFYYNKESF

[3] = biological target: T2, Heat shock factor protein 1 (Mus musculus, UniProt P38532); assay: decrease of HSF1-responsive luciferase luminescence – cell-based, NIH3T3, dose retest, confirmation (AID 2382); format: functional;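 note: NIH3T3 fibroblasts with HSF1-driven luciferase reporter stressed by proteasome inhibitor MG132; luminescence from HSF1-driven luciferase expression after 8 hours of MG132 stress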
T2 sequence (P38532 whole entry): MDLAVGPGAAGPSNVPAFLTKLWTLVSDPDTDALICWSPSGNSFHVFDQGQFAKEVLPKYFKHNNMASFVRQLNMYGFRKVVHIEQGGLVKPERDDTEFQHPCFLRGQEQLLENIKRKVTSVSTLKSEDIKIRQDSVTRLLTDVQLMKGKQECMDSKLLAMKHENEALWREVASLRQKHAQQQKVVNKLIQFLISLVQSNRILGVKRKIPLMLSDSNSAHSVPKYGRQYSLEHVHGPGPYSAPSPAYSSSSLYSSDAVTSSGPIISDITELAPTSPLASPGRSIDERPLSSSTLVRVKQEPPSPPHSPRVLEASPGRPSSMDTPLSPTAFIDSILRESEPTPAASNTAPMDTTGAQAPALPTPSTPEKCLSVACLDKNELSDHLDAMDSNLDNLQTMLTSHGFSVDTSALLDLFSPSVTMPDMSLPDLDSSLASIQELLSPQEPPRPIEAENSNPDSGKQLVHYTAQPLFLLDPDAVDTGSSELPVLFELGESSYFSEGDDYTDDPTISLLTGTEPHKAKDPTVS

[4] = biological target: T3, Ubiquitin-conjugating enzyme E2 N (Homo sapiens, UniProt P61088); format: functional
T3 sequence (P61088 whole entry): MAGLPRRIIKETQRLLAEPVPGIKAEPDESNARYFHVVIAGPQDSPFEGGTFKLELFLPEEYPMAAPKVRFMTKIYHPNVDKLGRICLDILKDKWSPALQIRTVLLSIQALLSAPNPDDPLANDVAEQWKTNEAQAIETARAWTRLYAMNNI

Bcl-2-related protein A1 = biological target: T4, Bcl-2-related protein A1 (Mus musculus, UniProt Q07440); format: functional;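 note: confirmatory dose–response counterscreen on Bfl-1, used to check hits from a UBC13 polyubiquitin inhibitor campaign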
T4 sequence (Q07440 whole entry): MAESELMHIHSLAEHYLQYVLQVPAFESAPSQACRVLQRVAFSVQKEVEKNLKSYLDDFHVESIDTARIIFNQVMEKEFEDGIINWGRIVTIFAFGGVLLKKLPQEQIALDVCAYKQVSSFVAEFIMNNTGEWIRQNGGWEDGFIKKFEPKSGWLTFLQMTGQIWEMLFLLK

BJ [5] = assay: BJ-TERT fibroblast viability loss – cell-based, RAS-independent, luminescence, dose response (AID 1933); format: functional; conditions: Homo sapiens
[6] = DRD fibroblast viability loss – cell-based, non-viral oncogenic, luminescence, dose response (AID 1934); format: functional; conditions: Homo sapiens
BJ [7] = assay: growth inhibition of engineered Ras-driven BJ cells – cell-based, alamar blue fluorescence, cherrypicked samples, dose response (AID 2631); format: functional; conditions: Homo sapiens;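 note: confirmatory dose-response assay in RAS-dependent BJ fibroblasts engineered with TERT, LT and ST, with cytotoxicity read by fluorescence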
BJ [8] = assay: cells; format: functional, cell-based; conditions: Homo sapiens
BJ [9] = assay: BJ-TERT-LT-ST fibroblast viability loss – cell-based, RAS-independent, luminescence, dose response (AID 1935); format: functional; conditions: Homo sapiens;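 note: BJ fibroblasts immortalized with TERT plus LT and ST oncogenes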
[10] = biological target: T5, Type-1 angiotensin II receptor (Homo sapiens, UniProt P30556); assay: agonist activity at AGTR1 – cell-based, uHTS hits, selectivity assay for APJ receptor agonist project, dose response (AID 488865); format: functional;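 note: beta-arrestin recruitment to AT1 measured by enzyme fragment complementation luminescence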
T5 sequence (P30556 whole entry): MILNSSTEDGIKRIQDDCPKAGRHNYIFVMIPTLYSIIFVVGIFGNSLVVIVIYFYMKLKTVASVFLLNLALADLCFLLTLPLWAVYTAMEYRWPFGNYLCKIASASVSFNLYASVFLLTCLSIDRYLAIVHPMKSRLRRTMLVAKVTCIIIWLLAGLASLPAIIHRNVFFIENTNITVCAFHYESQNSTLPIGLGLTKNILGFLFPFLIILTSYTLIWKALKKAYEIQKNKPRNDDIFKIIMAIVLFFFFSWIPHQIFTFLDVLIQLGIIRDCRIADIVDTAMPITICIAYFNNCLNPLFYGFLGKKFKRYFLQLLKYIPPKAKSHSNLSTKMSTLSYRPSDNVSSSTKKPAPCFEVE

INS1 = assay: INS-1E survival protection against cytokine death – cell-based, luminescence, retest, dose response (AID 449756); format: functional; conditions: Rattus norvegicus;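 note: cell death triggered by IL-1 beta plus TNF-alpha plus IFN-gamma mixture; protective hits raise ATP signal compared with cytokine alone wells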
[11] = biological target: T3, Ubiquitin-conjugating enzyme E2 N; format: functional; remark: listed apart in the source
Cannabinoid receptor 2 [12] = biological target: T6, Cannabinoid receptor 2 (Homo sapiens, UniProt P34972); assay: SAR analysis of agonists of the Cannabinoid Receptor 2 using an Image-Based Assay. [Related pubchem assays (depositor defined):AID2013, AID2026]; format: functional
T6 sequence (P34972 whole entry): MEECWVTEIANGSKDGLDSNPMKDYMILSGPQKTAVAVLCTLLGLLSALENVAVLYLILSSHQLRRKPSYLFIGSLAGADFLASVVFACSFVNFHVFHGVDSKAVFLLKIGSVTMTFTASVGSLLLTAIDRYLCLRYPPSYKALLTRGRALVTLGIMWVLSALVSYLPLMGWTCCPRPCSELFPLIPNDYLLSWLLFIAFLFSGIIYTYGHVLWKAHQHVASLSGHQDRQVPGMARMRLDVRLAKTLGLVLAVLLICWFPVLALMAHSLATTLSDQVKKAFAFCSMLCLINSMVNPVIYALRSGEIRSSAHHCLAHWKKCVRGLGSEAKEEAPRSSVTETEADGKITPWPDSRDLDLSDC

Ion channel NompC = Ion channel NompC (Danio rerio, UniProt Q7T1G6); assay: Fluorescence counterscreen assay for TRPML3 agonists: dose response cell-based high-throughput screening assay to identify agonists of the transient receptor potential channel N1 (TRPN1). [Related pubchem assays: 1526, 1424, 1448 ]; format: functional
Ion channel NompC, sequence (Q7T1G6 whole entry): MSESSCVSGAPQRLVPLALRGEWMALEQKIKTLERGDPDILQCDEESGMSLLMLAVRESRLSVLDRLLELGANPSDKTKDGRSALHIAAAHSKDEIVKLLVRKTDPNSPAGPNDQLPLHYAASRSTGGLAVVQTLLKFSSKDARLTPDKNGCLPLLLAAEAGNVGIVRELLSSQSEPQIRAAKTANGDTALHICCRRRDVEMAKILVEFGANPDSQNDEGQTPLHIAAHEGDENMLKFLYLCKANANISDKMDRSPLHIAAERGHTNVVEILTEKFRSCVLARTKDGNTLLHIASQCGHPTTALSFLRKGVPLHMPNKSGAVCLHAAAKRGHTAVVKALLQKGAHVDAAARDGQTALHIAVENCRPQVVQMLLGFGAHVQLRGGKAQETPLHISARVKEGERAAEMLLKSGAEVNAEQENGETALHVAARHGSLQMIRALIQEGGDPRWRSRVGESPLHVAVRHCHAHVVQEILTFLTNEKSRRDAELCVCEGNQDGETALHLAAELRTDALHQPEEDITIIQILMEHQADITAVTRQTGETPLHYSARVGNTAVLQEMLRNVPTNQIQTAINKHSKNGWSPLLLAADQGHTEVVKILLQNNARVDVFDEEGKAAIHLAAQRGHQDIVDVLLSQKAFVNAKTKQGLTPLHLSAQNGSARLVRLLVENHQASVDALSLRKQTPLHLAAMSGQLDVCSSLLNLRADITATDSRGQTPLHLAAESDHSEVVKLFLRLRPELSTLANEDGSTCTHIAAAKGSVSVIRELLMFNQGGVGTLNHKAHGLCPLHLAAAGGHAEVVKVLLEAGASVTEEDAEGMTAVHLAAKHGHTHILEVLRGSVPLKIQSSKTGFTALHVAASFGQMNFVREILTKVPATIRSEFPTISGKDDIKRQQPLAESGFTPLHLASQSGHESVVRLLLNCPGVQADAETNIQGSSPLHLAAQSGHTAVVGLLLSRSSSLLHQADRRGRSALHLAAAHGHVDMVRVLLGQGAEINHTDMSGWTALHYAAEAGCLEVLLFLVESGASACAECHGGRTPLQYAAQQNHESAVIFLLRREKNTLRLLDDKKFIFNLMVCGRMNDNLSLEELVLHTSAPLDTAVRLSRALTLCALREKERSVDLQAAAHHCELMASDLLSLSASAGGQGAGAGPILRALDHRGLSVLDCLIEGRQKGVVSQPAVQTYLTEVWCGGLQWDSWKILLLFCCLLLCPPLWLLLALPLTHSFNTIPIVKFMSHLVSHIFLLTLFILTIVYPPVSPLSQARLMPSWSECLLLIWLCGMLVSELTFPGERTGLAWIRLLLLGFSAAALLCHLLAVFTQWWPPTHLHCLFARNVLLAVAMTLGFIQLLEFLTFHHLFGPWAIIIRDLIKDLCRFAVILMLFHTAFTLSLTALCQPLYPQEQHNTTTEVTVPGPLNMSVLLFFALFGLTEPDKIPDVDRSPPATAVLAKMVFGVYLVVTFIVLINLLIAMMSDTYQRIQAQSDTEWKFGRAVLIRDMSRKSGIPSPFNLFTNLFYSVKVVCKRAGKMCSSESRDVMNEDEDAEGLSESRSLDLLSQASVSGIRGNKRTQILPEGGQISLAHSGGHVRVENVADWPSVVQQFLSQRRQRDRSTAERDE

[13] = biological target: T7, G-protein coupled receptor 35 (Homo sapiens, UniProt Q9HC97); assay: SAR analysis of Antagonists of the GPR35 Receptor using an Image-Based Assay - Set 3. [Related pubchem assays (depositor defined):AID2013, AID2026]; format: functional
T7 sequence (Q9HC97 whole entry): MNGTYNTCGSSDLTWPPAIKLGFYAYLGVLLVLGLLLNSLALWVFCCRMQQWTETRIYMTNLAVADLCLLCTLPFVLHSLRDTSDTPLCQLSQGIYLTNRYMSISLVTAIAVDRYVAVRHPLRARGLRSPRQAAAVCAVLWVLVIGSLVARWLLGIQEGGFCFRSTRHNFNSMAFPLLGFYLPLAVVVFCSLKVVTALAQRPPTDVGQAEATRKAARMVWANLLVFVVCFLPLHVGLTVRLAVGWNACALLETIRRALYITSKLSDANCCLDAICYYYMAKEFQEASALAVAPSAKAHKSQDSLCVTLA

Cannabinoid receptor 1 [14] = biological target: T8, Cannabinoid receptor 1 (Homo sapiens, UniProt P21554); assay: SAR analysis of antagonists of the Cannabinoid Receptor 1 using an Image-Based Assay - Set 2. [Related pubchem assays (depositor defined):AID2013, AID2026]; format: functional
T8 sequence (P21554 whole entry): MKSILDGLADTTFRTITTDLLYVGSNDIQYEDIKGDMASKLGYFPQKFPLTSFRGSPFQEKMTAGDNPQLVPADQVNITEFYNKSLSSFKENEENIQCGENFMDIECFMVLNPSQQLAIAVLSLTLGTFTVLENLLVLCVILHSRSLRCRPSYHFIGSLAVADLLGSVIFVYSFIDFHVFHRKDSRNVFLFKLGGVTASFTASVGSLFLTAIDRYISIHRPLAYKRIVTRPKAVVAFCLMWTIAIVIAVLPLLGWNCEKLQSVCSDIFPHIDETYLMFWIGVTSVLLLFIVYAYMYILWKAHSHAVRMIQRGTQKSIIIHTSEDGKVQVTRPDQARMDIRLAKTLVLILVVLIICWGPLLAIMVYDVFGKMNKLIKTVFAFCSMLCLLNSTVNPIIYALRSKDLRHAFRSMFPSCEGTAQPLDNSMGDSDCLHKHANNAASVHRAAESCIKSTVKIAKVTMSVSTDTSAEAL

[15] = biological target: T9, G-protein coupled receptor 55 (Homo sapiens, UniProt Q9Y2T6); assay: blockade of LPI-induced GPR55 arrestin translocation – imaging, U2OS, beta-arrestin-GFP, LPI agonist, set 2, SAR follow-up (AID 2820); format: functional
T9 sequence (Q9Y2T6 whole entry): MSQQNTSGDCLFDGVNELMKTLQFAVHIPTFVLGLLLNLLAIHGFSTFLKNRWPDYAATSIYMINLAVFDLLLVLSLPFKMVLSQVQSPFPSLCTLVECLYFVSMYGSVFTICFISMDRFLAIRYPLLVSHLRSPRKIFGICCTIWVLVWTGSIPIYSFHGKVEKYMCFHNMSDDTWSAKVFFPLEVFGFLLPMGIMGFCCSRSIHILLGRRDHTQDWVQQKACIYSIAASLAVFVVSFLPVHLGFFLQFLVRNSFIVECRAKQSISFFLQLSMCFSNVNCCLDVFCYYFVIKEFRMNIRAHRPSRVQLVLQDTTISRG

[16] = biological target: T9, G-protein coupled receptor 55; assay: inhibition of LPI-stimulated GPR55 beta-arrestin translocation – imaging, U2OS, beta-arrestin-GFP, LPI agonist, primary screen (AID 2013); format: functional;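 note: antagonist potency measured as reduced agonist-driven arrestin aggregation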
Mucolipin-3 = Mucolipin-3 (Homo sapiens, UniProt Q8TDD5); assay: Dose response cell-based high-throughput screening assay for agonists of the transient receptor potential channel ML3 (TRPML3). [Related pubchem assays: 1526, 1424, 1448 ]; format: functional
Mucolipin-3, sequence (Q8TDD5 whole entry): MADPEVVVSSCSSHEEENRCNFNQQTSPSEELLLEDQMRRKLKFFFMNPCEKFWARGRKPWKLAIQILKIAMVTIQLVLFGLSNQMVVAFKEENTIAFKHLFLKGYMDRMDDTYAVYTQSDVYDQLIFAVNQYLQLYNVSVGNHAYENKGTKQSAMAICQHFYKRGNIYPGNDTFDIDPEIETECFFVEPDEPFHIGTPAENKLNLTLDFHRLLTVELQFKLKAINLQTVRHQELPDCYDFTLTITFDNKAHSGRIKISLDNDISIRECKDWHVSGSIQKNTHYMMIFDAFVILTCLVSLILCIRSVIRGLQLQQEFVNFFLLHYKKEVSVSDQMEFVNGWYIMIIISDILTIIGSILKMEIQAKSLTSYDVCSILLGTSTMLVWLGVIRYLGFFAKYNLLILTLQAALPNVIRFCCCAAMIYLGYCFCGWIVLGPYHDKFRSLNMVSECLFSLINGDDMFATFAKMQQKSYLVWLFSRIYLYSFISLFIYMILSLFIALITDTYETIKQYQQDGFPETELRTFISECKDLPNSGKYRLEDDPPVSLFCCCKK

Cannabinoid receptor 2 [17] = biological target: T6, Cannabinoid receptor 2; assay: SAR analysis of antagonists of the Cannabinoid Receptor 2 using an Image-Based Assay. [Related pubchem assays (depositor defined):AID2013, AID2026]; format: functional
[18] = biological target: T7, G-protein coupled receptor 35; assay: SAR analysis of Agonists of the GPR35 Receptor using an Image-Based Assay - Set 2. [Related pubchem assays (depositor defined):AID2013, AID2026]; format: functional
Cannabinoid receptor 1 [19] = biological target: T8, Cannabinoid receptor 1; assay: SAR analysis of agonists of the Cannabinoid Receptor 1 using an Image-Based Assay - Set 2. [Related pubchem assays (depositor defined):AID2013, AID2026]; format: functional
[20] = Luminescence Cell-Based Dose Response HTS to Identify Activators of 5'UTR Stem-Loop Driven Prion Protein mRNA Translation in H4-C Neuroglioblastoma Cells. [Related pubchem assays: 1829 (Project Summary), 1814 (Primary HTS)]; format: functional
[21] = biological target: T10, Nuclear receptor subfamily 0 group B member 1 (Homo sapiens, UniProt P51843); format: functional, cell-based;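 note: HEK293T cells transfected with SF-1 and DAX-1 plus StAR promoter luciferase reporter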
T10 sequence (P51843 whole entry): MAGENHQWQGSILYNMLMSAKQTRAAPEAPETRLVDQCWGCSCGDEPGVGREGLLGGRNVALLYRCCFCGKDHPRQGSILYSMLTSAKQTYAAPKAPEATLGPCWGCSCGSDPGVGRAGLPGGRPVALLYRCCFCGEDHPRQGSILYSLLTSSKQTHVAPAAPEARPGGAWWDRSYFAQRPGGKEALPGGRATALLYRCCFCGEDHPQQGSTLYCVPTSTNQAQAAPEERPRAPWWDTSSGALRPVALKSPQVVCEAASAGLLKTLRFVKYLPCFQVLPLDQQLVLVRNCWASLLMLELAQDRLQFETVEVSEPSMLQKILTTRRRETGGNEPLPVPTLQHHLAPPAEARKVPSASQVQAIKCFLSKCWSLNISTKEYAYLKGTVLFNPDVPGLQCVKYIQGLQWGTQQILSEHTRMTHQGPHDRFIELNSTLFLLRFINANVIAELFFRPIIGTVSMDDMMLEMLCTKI

[22] = Luminescence Cell-Based Dose HTS Response to Identify Inhibitors of 5'UTR Stem-Loop Driven Prion Protein mRNA Translation in H4-C Neuroglioblastoma Cells. [Related pubchem assays (depositor defined):AID1814, AID1827]; format: functional
[23] = alpha-synuclein stem-loop luciferase translation blockers – H4 neuroglioma cells, luminescence, confirmation (AID 1988); format: functional, cell-based
cells = format: functional, cell-based
[24] = Luminescence Cell-Based Dose Response HTS to Identify Activators of Luciferase Translation or Activity in H4-C Neuroglioblastoma Cells. [Related pubchem assays: 1829 (Project Summary), 1814 (Primary HTS)]; format: functional
[25] = Luminescence Cell-Based Dose Response HTS to Identify Inhibitors of Luciferase Translation or Activity in H4-C Neuroglioblastoma Cells. [Related pubchem assays: 1813 (Primary HTS), 1827 (Project Summary)]; format: functional
[26] = Luminescence Cell-Based Dose Response HTS to Identify Inhibitors of 5'UTR Stem-Loop Driven Prion Protein mRNA Translation in H4 Neuroglioblastoma Cells. [Related pubchem assays: 1827 (Project Summary), 1813 (Primary HTS)]; format: functional
[27] = Luminescence Cell-Based Dose Confirmation HTS to Identify Inhibitors of 5'UTR Stem-Loop Driven Alpha-Synuclein mRNA Translation in H4 Neuroglioblastoma Cells. [Related pubchem assays: 1827 (Project Summary), 1813 (Primary HTS)]; format: functional

Cc1nnc(SCC(=O)NC(C)(C)C)n1C1CCCCC1
inactive: EC50 (Troponin, cardiac muscle) > 71.5 µM

Oc1c(Br)cc(/C=N/Nc2c(Cl)cncc2Cl)cc1Br
active: IC50 (NADPH oxidase 1 [1]) 0.43 µM | IC50 (NADPH oxidase 1 [2]) 10 µM
inactive: IC50 (NADPH oxidase 2) > 50 µM | IC50 (NADPH oxidase 3) > 50 µM

COc1ccc(OC)c2sc(N(CCCN(C)C)C(=O)c3ccc(S(=O)(=O)N4CCc5ccccc5C4)cc3)nc12
inactive: EC50 [10] > 100 µM
active: EC50 [3] 5.01 µM | IC50 [4] 1.27 µM | IC50 (Bcl-2-related protein A1) 8.51 µM | EC50 (BJ [7]) 0.289 µM | EC50 (BJ [8]) 2.43 µM | AC50 (INS1) 1.75 µM | IC50 [11] 2.47 µM
inconclusive: EC50 (BJ [5]) 0.357 µM | EC50 [6] 1.27 µM | EC50 (BJ [9]) 0.432 µM

COc1ccc(S(=O)(=O)Nc2ccc(C)cc2)cc1N(C)S(=O)(=O)c1ccc(Cl)cc1
> 29.9 µM (not active): EC50 (Ion channel NompC)
inactive: EC50 (Cannabinoid receptor 2 [12]) > 32 µM | IC50 [13] > 32 µM | IC50 (Cannabinoid receptor 2 [17]) > 32 µM | EC50 [18] > 32 µM | EC50 (Cannabinoid receptor 1 [19]) > 32 µM
active: IC50 (Cannabinoid receptor 1 [14]) 5.95 µM | IC50 [15] 0.992 µM | IC50 [16] 1.8 µM | EC50 (Mucolipin-3) 6.67 µM

CCc1ccc(CNC(=O)Cc2ccc(NC(=O)C3=C(C)OCCS3)cc2)cc1
> 195 µM (not active): EC50 [27]
active: EC50 (BJ [7]) 0.379 µM | EC50 (BJ [8]) 23.3 µM | EC50 [22] 0.592 µM | EC50 (BJ [9]) 3.01 µM | EC50 [23] 0.899 µM | EC50 [25] 51.1 µM | EC50 [26] 104 µM
inconclusive: EC50 (BJ [5]) 7.66 µM | EC50 [20] 0.592 µM | EC50 [6] 10.7 µM | EC50 [24] 51.1 µM
inactive: IC50 [21] > 67.5 µM | IC50 (cells) > 67.5 µM
